# Test results: patent US6355799B1, “Substituted benzene compounds, process for their preparation, and herbicidal and defoliant compositions containing them” (ISK Americas Incorporated, priority 1997, dated 2002)
# Key:
# Assay type in all cases: in vivo
# [1] = system: redroot pigweed (Amaranthus retroflexus, AMARE); test: Pre-emerge test, greenhouse herbicide activity screening; details: rated 14 days after application, 0 = no damage, 100 = complete death
# Method in brief: (§1)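 Visual ratings on a 0-100 scale (0 no damage, 100 all plants dead) were taken at 14 days after treatment. Rates of 15-1000 g ai/ha in acetone, 187 l/ha, were sprayed onto soil one day after planting (pre-emerge) or onto 2-3 leaf plants with 0.25% v/v surfactant (post-emerge).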
# [2] = system: velvetleaf (Abutilon theophrasti, ABUTH); test: as above; details: rated 14 days after application, 0 = no damage, 100 = complete death
# Method in brief: (§2)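 Plants grown in 10 cm pots of sandy loam mix received acetone-dissolved compounds through a moving flat-fan nozzle. Doses ranged from 15 to 1000 g ai/ha. Pre-emerge pots were seeded one day earlier, post-emerge pots 8–21 days earlier. Fourteen days on, each pot was graded 0–100 for damage.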
# [3] = system: large crabgrass (Digitaria sanguinalis, DIGSA); test: as above; details: rated 14 days after application, 0 = no damage, 100 = complete death
# Method in brief: as §2
# [4] = system: lambsquarters (Chenopodium album, CHEAL); test: as above; details: rated 14 days after application, 0 = no damage, 100 = complete death
# Method in brief: as §2
# [5] = system: sicklepod (Cassia obtusifolia, CASOB); test: as above; details: rated 14 days after application, 0 = no damage, 100 = complete death
# Method in brief: as §2
# [6] = system: ivyleaf morningglory (Ipomoea hederacea, IPOHE); test: as above; details: rated 14 days after application, 0 = no damage, 100 = complete death
# Method in brief: as §2
# [7] = system: green foxtail (Setaria viridis, SETVI); test: as above; details: rated 14 days after application, 0 = no damage, 100 = complete death
# Method in brief: as §2
# [8] = system: johnsongrass (Sorghum halepense, SORHA); test: as above; details: rated 14 days after application, 0 = no damage, 100 = complete death
# Method in brief: as §2
# [9] = system: common ragweed (Ambrosia artemisizfolia L., AMBEL); test: as above; details: rated 14 days after application, 0 = no damage, 100 = complete death
# Method in brief: as §2
# [10] = system: barnyardgrass (Echinochloa crus-galli, ECHCG); test: as above; details: rated 14 days after application, 0 = no damage, 100 = complete death
# Method in brief: as §2
# [11] = system: velvetleaf (Abutilon theophrasti, ABUTH); test: Post-emerge test, greenhouse herbicide activity screening; details: post-emerge, 14 days after application, rating scale 0-100
# Method in brief: as §1
# [12] = system: large crabgrass (Digitaria sanguinalis, DIGSA); test: as above; details: post-emerge, 14 days after application, rating scale 0-100
# Method in brief: as §1
# [13] = system: lambsquarters (Chenopodium album, CHEAL); test: as above; details: post-emerge, 14 days after application, rating scale 0-100
# Method in brief: as §1
# [14] = system: sicklepod (Cassia obtusifolia, CASOB); test: as above; details: post-emerge, 14 days after application, rating scale 0-100
# Method in brief: as §1
# [15] = system: ivyleaf morningglory (Ipomoea hederacea, IPOHE); test: as above; details: post-emerge, 14 days after application, rating scale 0-100
# Method in brief: as §1
# [16] = system: johnsongrass (Sorghum halepense, SORHA); test: as above; details: post-emerge, 14 days after application, rating scale 0-100
# Method in brief: as §1
# [17] = system: common ragweed (Ambrosia artemisizfolia L., AMBEL); test: as above; details: post-emerge, 14 days after application, rating scale 0-100
# Method in brief: as §1
# [18] = system: redroot pigweed (Amaranthus retroflexus, AMARE); test: as above; details: post-emerge, 14 days after application, rating scale 0-100
# Method in brief: as §1
# [19] = system: barnyardgrass (Echinochloa crus-galli, ECHCG); test: as above; details: post-emerge, 14 days after application, rating scale 0-100
# Method in brief: as §1
# [20] = system: upland rice (Oryza sp., var. Tebonnet, RICE); test: Post-emerge test, crop safety; details: post-emerge, 14 days after application, rating scale 0-100
# Method in brief: (§3)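 Each test used a mechanized track sprayer delivering 187 l/ha of acetone solution at 15–1000 g ai/ha. Post-emerge foliage at 2–3 leaves was treated with added 0.25% v/v non-ionic surfactant and bottom-watered only. Injury was assessed on day 14, where 100 means total kill.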
# [21] = system: field corn (Zea mays L., var. Dekalb 535, CORN); test: Post-emerge test, crop safety; details: post-emerge, 14 days after application, rating scale 0-100
# Method in brief: as §3
# [22] = system: upland rice (Oryza sp., var. Tebonnet, RICE); test: Pre-emerge test, crop safety; details: rated 14 days after application, 0 = no damage, 100 = complete death
# Method in brief: as §1
# [23] = system: field corn (Zea mays L., var. Dekalb 535, CORN); test: Pre-emerge test, crop safety; details: rated 14 days after application, 0 = no damage, 100 = complete death
# Method in brief: as §1
smiles,measurement,setting,value
COc1c(Cl)cc(F)c(-n2c(=O)cc(C(F)(F)F)n(C)c2=O)c1N(C(=O)c1ccc(C(F)(F)F)cc1)C(=O)c1ccc(C(F)(F)F)cc1 [2-34],"Pre-emerge Herbicidal Activity, phytotoxicity rating (0-100), AMARE",[1]; 63 g ai/ha,100
same,"Pre-emerge Herbicidal Activity, phytotoxicity rating (0-100), AMARE",[1]; 250 g ai/ha,100
same,"Pre-emerge Herbicidal Activity, phytotoxicity rating (0-100), ABUTH",[2]; 63 g ai/ha,100
same,"Pre-emerge Herbicidal Activity, phytotoxicity rating (0-100), ABUTH",[2]; 250 g ai/ha,100
same,"Pre-emerge Herbicidal Activity, phytotoxicity rating (0-100), DIGSA",[3]; 63 g ai/ha,70
same,"Pre-emerge Herbicidal Activity, phytotoxicity rating (0-100), DIGSA",[3]; 250 g ai/ha,100
same,"Pre-emerge Herbicidal Activity, phytotoxicity rating (0-100), CHEAL",[4]; 63 g ai/ha,100
same,"Pre-emerge Herbicidal Activity, phytotoxicity rating (0-100), CHEAL",[4]; 250 g ai/ha,100
same,"Pre-emerge Herbicidal Activity, phytotoxicity rating (0-100), CASOB",[5]; 63 g ai/ha,100
same,"Pre-emerge Herbicidal Activity, phytotoxicity rating (0-100), CASOB",[5]; 250 g ai/ha,100
same,"Pre-emerge Herbicidal Activity, phytotoxicity rating (0-100), IPOHE",[6]; 63 g ai/ha,100
same,"Pre-emerge Herbicidal Activity, phytotoxicity rating (0-100), IPOHE",[6]; 250 g ai/ha,100
same,"Pre-emerge Herbicidal Activity, phytotoxicity rating (0-100), SETVI",[7]; 63 g ai/ha,95
same,"Pre-emerge Herbicidal Activity, phytotoxicity rating (0-100), SETVI",[7]; 250 g ai/ha,100
same,"Pre-emerge Herbicidal Activity, phytotoxicity rating (0-100), SORHA",[8]; 63 g ai/ha,20
same,"Pre-emerge Herbicidal Activity, phytotoxicity rating (0-100), SORHA",[8]; 250 g ai/ha,85
same,"Pre-emerge Herbicidal Activity, phytotoxicity rating (0-100), AMBEL",[9]; 63 g ai/ha,100
same,"Pre-emerge Herbicidal Activity, phytotoxicity rating (0-100), AMBEL",[9]; 250 g ai/ha,100
same,"Pre-emerge Herbicidal Activity, phytotoxicity rating (0-100), ECHCG",[10]; 63 g ai/ha,70
same,"Pre-emerge Herbicidal Activity, phytotoxicity rating (0-100), ECHCG",[10]; 250 g ai/ha,99
same,phytotoxicity rating ABUTH,[11]; 63 g ai/ha,100
same,phytotoxicity rating ABUTH,[11]; 250 g ai/ha,100
same,phytotoxicity rating DIGSA,[12]; 63 g ai/ha,10
same,phytotoxicity rating DIGSA,[12]; 250 g ai/ha,30
same,phytotoxicity rating CHEAL,[13]; 63 g ai/ha,85
same,phytotoxicity rating CHEAL,[13]; 250 g ai/ha,90
same,phytotoxicity rating CASOB,[14]; 63 g ai/ha,100
same,phytotoxicity rating CASOB,[14]; 250 g ai/ha,100
same,phytotoxicity rating IPOHE,[15]; 63 g ai/ha,75
same,phytotoxicity rating IPOHE,[15]; 250 g ai/ha,95
same,phytotoxicity rating SORHA,[16]; 63 g ai/ha,40
same,phytotoxicity rating SORHA,[16]; 250 g ai/ha,80
same,phytotoxicity rating AMBEL,[17]; 63 g ai/ha,70
same,phytotoxicity rating AMBEL,[17]; 250 g ai/ha,85
same,phytotoxicity rating AMARE,[18]; 63 g ai/ha,95
same,phytotoxicity rating AMARE,[18]; 250 g ai/ha,95
same,phytotoxicity rating ECHCG,[19]; 63 g ai/ha,0
same,phytotoxicity rating ECHCG,[19]; 250 g ai/ha,30
same,phytotoxicity rating RICE,[20]; 63 g ai/ha,65
same,phytotoxicity rating RICE,[20]; 250 g ai/ha,85
same,phytotoxicity rating CORN,[21]; 63 g ai/ha,60
same,phytotoxicity rating CORN,[21]; 250 g ai/ha,90
same,"Pre-emerge phytotoxicity rating (0-100), crop damage, RICE",[22]; 63 g ai/ha,40
same,"Pre-emerge phytotoxicity rating (0-100), crop damage, RICE",[22]; 250 g ai/ha,90
same,"Pre-emerge phytotoxicity rating (0-100), crop damage, CORN",[23]; 63 g ai/ha,25
same,"Pre-emerge phytotoxicity rating (0-100), crop damage, CORN",[23]; 250 g ai/ha,90
